# Measured values from US20210206817A1, “Metabolically Stable Apelin Analogs in the Treatment of Disease Mediated by the Apelin Receptor” (priority 2014, published 2021).
# “And” between values parts separate entries of the source, which are not always exact repeats. Identical values can stand only once. Where a SMILES comes first, the peptide text is derived from it.
# Assays:
# [1] = test system: rat aortic rings precontracted by noradrenaline (NA); assay: Isometric tension of aortic rings precontracted by noradrenaline; settings: precontraction 3×10^−6 M NA
# Protocol: The experiments were performed in rat aortic rings as previously described (39). […] The aortas were cleaned of excess connective tissue and fat and cut into rings of approximately 3-4 mm in length. Special care was taken to avoid damaging the luminal surface of the endothelium. […] One end of the aortic ring was connected to a tissue holder and the other to an isometric force transducer (EMKA Technologies, Paris, France). […] During equilibration period, the rings were washed every 30 min. Then, a first relaxation to acetylcholine (Ach, 10^−4 mol/L) was implemented to check the integrity or the absence of the endothelium in rings precontracted with NA (3×10^−8 mol/L). After rinsing with PSS to baseline tension, rings were equilibrated for 90 min. […] Each concentration of the drug was added at the maximal effect of the precedent concentration. The concentration-response curves were continuously recorded on a PC by means of IOX v 2.4 (EMKA Technologies, Paris) for further analysis (Datanalyst v2.1, EMKA Technologies, Paris).
# [2] = test system: water-deprived or euhydrated mice; assay: Plasma AVP after i.c.v. injection (RIA); assay type: in vivo, mouse
# Protocol: Animals were killed 1 min after the injection, and trunk blood (0.5-1 ml) was collected in chilled tubes containing 50 μl of 0.3 M EDTA pH 7.4. […] RIA kit (Peninsula Laboratories International Inc, San Carlo, USA).
# rat apelin receptor-EGFP [3] = target: T1, rat apelin receptor-EGFP (Rattus norvegicus, UniProt Q9JHG3); assay: Inhibition of forskolin-induced cAMP production (HTRF); assay type: cell-based
# T1 construct: expressed in transfected cells
# T1 sequence (Q9JHG3 1-377): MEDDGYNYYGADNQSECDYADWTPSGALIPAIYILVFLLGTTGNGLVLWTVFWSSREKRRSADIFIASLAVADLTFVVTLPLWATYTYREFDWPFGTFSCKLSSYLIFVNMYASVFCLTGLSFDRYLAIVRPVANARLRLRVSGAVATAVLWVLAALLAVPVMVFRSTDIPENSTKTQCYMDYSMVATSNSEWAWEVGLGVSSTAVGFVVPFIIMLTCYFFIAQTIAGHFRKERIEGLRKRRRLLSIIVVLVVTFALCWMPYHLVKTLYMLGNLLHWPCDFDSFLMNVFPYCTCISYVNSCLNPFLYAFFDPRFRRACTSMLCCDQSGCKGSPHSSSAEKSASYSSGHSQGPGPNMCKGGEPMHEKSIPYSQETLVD
# Protocol: cAMP was quantified using the cAMP dynamic 2 assay kit (Cisbio Bioassays, Codolet, France) based on homogeneous time-resolved fluorescence (HTRF) technology. The stimulation was done in the stimulation buffer (HBSS, 5 mM Hepes, 0.1% BSA stabilizer, 1 mM IBMX, pH 7.4). Briefly, 2,000/well CHO cells stably expressing the rat apelin receptor-EGFP were added into 384-well plate and stimulated with 10^−6 M forskolin (FSK) and increasing concentrations (10^−14 to 10^−4 M) of apelins or its analogs for 30 min at room temperature. Cells were then lyzed, and cAMP levels were determined following manufacturer instructions.
# in vitro = settings: mouse, plasma
# Protocol: For each compound, the stock solution (100 μM in water) was diluted in plasma to a final incubation concentration of 5 μM. The incubation at 37° C. was stopped respectively at to and 4 h by adding one volume of ice cold acetonitrile containing 0.1% trifluoroacetic acid. The sample was vortexed for 1 min and then centrifuged at 4° C. before LC-MS injection of the supernatant. Analyses were performed on a Kinetex RP-C18 column (2.6 μm, 100 Å, 50×4.6 mm) using a linear gradient (solvent B in solvent A, solvent A: water/0.05% TFA; solvent B: acetonitrile; flow rate of 2 mL·min^−1: detection at 358 nm). The percentage of remaining test compound relative to t0 was measured by monitoring the peak area of the chromatogram.
# AT1 receptor = assay: Selectivity towards the AT1 receptor; assay type: binding
# rat apelin receptor-EGFP [4] = target: T1, rat apelin receptor-EGFP; assay: ERK1/2 phosphorylation (Alphascreen); assay type: cell-based; settings: Table 7; read-out: ERK1/2 phosphorylation EC50
# From the text: ERK1/2 phosphorylation was then monitored by Alphascreen technology.
# rat apelin receptor-EGFP [5] = target: T1, rat apelin receptor-EGFP; assay: [125I]pE13F radioligand binding on CHO membrane preparations
# Protocol: Crude membrane preparation from CHO stably expressing the wild-type rat apelin receptor-EGFP, were prepared as previously described (39). […] The reaction was stopped by adding ice-cold binding buffer and filtered through glass microfiber filters (Whatman GF/C filters). Radioactivity was counted in Wizard 1470 Wallac gamma counter (Perkin Elmer, Turku, Finland).
# [6] = test system: isolated perfused rat heart; assay: Isolated perfused rat heart, cardiac contractility
# Protocol: Animals were anesthetized with pentobarbital sodium (50 mg/kg intraperitoneally). Heparin (200 IU/kg) was administrated into the femoral vein. Hearts were excised quickly and arrested in ice-cold Krebs-Henseleit solution containing (mM): […] […] Temperature was continuously monitored by a thermoprobe inserted into the right atrium. Hearts beat spontaneously under the sinus rhythm. […] The maximal rate of rise of left ventricular pressure (dP/dtmax) and heart rate were derived from left ventricular pressure. After 20-minutes equilibration period, the hearts were treated by drugs added to the perfusate with an infusion pump (Harvard Apparatus Pump 11) at rate of 100 μL/min for 30 minutes.
# [7] = test system: rat glomerular arterioles precontracted by Angiotensin II (AngII); assay: Diameter of glomerular arterioles precontracted by angiotensin II
# Protocol: The left kidney of male rats was prepared for microdissection of arterioles as previously described (44). Glomerular arterioles were isolated under stereomicroscopic observation. The afferent and muscular efferent arterioles were isolated with the glomerulus and identify according their morphology and localization in the inner renal cortex as previously described by Helou et al. […] For these experiments afferent and muscular efferent arterioles were microdissected attached to the gomeruli. […] Arteriolar diameters were measured with Adobe Photoshop CS. Diameters were measured on a distance equal to about 100 μm upstream of the glomerulus and triplicate were performed for each arteriole. Calibration was made using a stage micrometer. The average diameter for each experimental condition was used for statistical analysis.
# [8] = test system: anaesthesized normotensive Wistar rats; assay: Arterial blood pressure after i.v. injection; assay type: in vivo, rat
# Protocol: The resulting solution was administered to the rats via a catheter inserted into the right femoral vein, and was immediately followed by 0.2 ml Krebs buffer alone to flush the venous catheter. An additional catheter was inserted into the right femoral artery, as previously described (47), for the monitoring of mean arterial blood pressure (MBP) as previously described (48). The arterial catheter was connected to a COBE CDX III pressure transducer (Phymep, Paris, France) linked to the Maclab system (Phymep, Paris, France). HR measurement was triggered by the blood pressure signal. BP was continuously recorded throughout the experiment. […] Mean AUC for each group were then calculated. Unpaired Student's t test was used to determine whether BP observed in response to substances administered […].) has statistically significant difference.
# rat apelin receptor-EGFP [9] = target: T1, rat apelin receptor-EGFP; assay: Apelin receptor-EGFP internalization, confocal microscopy; assay type: cell-based
# Protocol: The internalization assay was performed as described previously with CHO cells stably expressing the rat apelin receptor-EGFP (43). […] Cells were then mounted in Aquapolymount (Polysciences, Warrington, Pa., USA) for confocal microscopic analysis (Sec (42) for details).
smiles,measurement,setting,value
"CCCC[C@H](NC(=O)[C@@H]1CCCN1C(=O)[C@@H](C)NC(=O)[C@H](CCCCN)NC(=O)C(C)(C)NC(=O)[C@H](CO)NC(=O)[C@@H](CC(C)C)NC(=O)[C@H](CCCNC(=N)N)NC(=O)[C@@H]1CCCN1C(=O)[C@H](CCCNC(=N)N)NC(=O)[C@@H](CCC(N)=O)NC(=O)[C@H](CCCNC(=N)N)NC(=O)[C@@H](CCCNC(=N)N)NC(=O)[C@H](Cc1ccccc1)NC(=O)[C@H](CCCCN)NC(C)=O)C(=O)N1CCC[C@H]1C(=O)N[C@@H](Cc1ccc(Br)cc1)C(=O)O [P92, N-Acetyl-Lys-Phe-DArg-Arg-DGln-Arg-Pro-Arg-DLeu-Ser-Aib-Lys-DAla-Pro-Nle-Pro-(4Br)Phe-OH] (HELM PEPTIDE1{[ac].K.F.[dR].R.[dQ].R.P.R.[dL].S.[Aib].K.[dA].P.[Nle].P.[O=C(O)[C@H](Cc1ccc(Br)cc1)N[*:1]]}$$$$V2.0)",maximal relaxant effect,[1],100±1%
same,potency (pD2) of relaxation,[1],7.68±0.57
same,effect on plasma AVP levels in euhydrated mice,"[2]; euhydrated mice, supramaximal dose 1 μg i.c.v.",no effect on plasma AVP levels
same,maximal decrease in AVP release,"[2]; water-deprived mice, 0.1 μg i.c.v.",−85%
same,agonist behaviour on inhibition of cAMP production induced by forskolin,rat apelin receptor-EGFP [3],full agonist
same,IC50,"rat apelin receptor-EGFP [3]; 10^−6 M forskolin, read-out: IC50 inhibition of forskolin-induced cAMP production",200 ± 60 pM
same,IC50,"rat apelin receptor-EGFP [3]; Table 1, read-out: cAMP production IC50",620 ± 770 pM
same,IC50,"rat apelin receptor-EGFP [3]; Table 2, read-out: cAMP production IC50",560 ± 320 pM
same,half-life at 5 μM,in vitro,24 min
same,selectivity towards the AT1 receptor with respect to the apelin receptor (factor),AT1 receptor,100
same,EC50,rat apelin receptor-EGFP [4],3420 ± 2410 pM
same,IC50,rat apelin receptor-EGFP [5]; Table 1,210 ± 130 pM
same,Ki,"rat apelin receptor-EGFP [5]; competition with [125I]pE13F, CHO membranes, read-out: Ki for the apelin receptor (affinity)",210 pM and 200 pM and 90 pM
same,chronotropic effect,[6],No chronotropic effect
same,effect on cardiac contractility (developed pressure),"[6]; K17F 0.01 to 300 nM, P92 200 and 400 nM",increase cardiac contractility with an amplitude similar to K17F
same,arteriolar diameter after addition to Ang II-preconstricted arterioles,"[7]; 500 nM, 1 nM Ang II, from 87.6±1.9% with Ang II, percentage of controls",98.1±2.5%
same,vasorelaxant effect in the presence of L-NAME,"[7]; L-NAME, NO synthase inhibitor",blocked
same,"duration of the hypotensive effect, fold higher than K17F",[8]; 15 nmol i.v.,3 fold
same,"maximal hypotensive response, fold higher than K17F",[8]; 15 nmol i.v.,3 fold
same,return to baseline after injection,[8]; 15 nmol/rat i.v.,10.8 min
same,AUC of BP response,"[8]; 100 nmol i.v., 15 minutes following injection",−34303±4003 mmHg·s
same,decrease in MABP,[8]; 100 nmol/rat i.v.,55.4 mmHg
same,plateau value after maximal decrease,[8]; 100 nmol/rat i.v.,−20 mmHg
same,time of return to plateau value,[8]; 100 nmol/rat i.v.,around 35 min
same,plateau value after maximal decrease,[8]; 10 or 15 nmol i.v.,−25 mmHg
same,time of return to plateau value,[8]; 10 or 15 nmol i.v.,around 33 min
same,Maximal decrease in BP (mmHg),"[8]; Table 5, 15 nmol i.v.",−20.8 mmHg
same,Time For maximal BP decrease,"[8]; Table 5, 15 nmol i.v.",1.6 min
same,Time to return to a plateau value,"[8]; Table 5, 15 nmol i.v.",10.8 min
same,plateau value reached (in brackets),"[8]; Table 5, 15 nmol i.v.",−12 mmHg
same,ED50 decrease of MABP,[8]; i.v. 5-100 nmol/rat,29.5 nmol
same,agonist behaviour towards apelin receptor internalization,rat apelin receptor-EGFP [9],full agonist
same,EC50,"rat apelin receptor-EGFP [9]; Table 2, read-out: Internalization EC50",380 ± 110 pM
